# In ChEMBL document CHEMBL1129838, “Synthesis and pharmacological evaluation of sulfone substituted HIV protease inhibitors” (Bioorg Med Chem Lett, 1997):
# Several values for one entry are separate records, joined by “and”; a condition that tells them apart may be missing. Identical values can stand only once.
# Legend:
# [1] = tested on: Human immunodeficiency virus 1; experiment: Antiviral activity against HIV-1 IIIB in H9 (human leukemia) cells.; format: functional, organism-based
# [2] = molecular target: Human immunodeficiency virus type 1 protease (Human immunodeficiency virus 1, UniProt Q72874); experiment: Inhibition of HIV-1 protease.
# [3] = Human immunodeficiency virus 1, H9
SMILES,"IC50 [1, 3] [nM]",Ki [2] [nM],IC50 ([1]; h9)
O=c1cc(C(CC2CC2)CC2CC2)oc(O)c1C(c1cccc(CS(=O)(=O)c2ccccn2)c1)C1CC1 (centres undefined),7700,2.3,
O=c1c2c(oc(O)c1C(c1cccc(NS(=O)(=O)c3ccccc3)c1)C1CC1)CCCCCC2 (centres undefined),5000,,
Cn1ccnc1S(=O)(=O)Cc1cccc(C(c2c(O)cc(C(CC3CC3)CC3CC3)oc2=O)C2CC2)c1 (centres undefined),12000,3.1,
O=c1cc(C(CC2CC2)CC2CC2)oc(O)c1C(c1cccc(NS(=O)(=O)c2ccc(F)cc2)c1)C1CC1 (centres undefined),2200,,
O=c1c2c(oc(O)c1C(c1cccc(CS(=O)(=O)c3ccc(F)cc3)c1)C1CC1)CCCCCC2 (centres undefined),14500,2.1,
O=c1cc(C(CC2CC2)CC2CC2)oc(O)c1C(c1cccc(CS(=O)(=O)c2ccc(F)cc2)c1)C1CC1 (centres undefined),19800,19,
Cn1ccnc1S(=O)(=O)Nc1cccc(C(c2c(O)c3c(oc2=O)CCCCCC3)C2CC2)c1 (centres undefined),> 3000,1.1,
O=c1c2c(oc(O)c1C(c1cccc(NS(=O)(=O)c3ccc(F)cc3)c1)C1CC1)CCCCCC2 (centres undefined),2100,,
N#Cc1ccc(S(=O)(=O)Cc2cccc(C(c3c(O)oc4c(c3=O)CCCCCC4)C3CC3)c2)cc1 (centres undefined),20500,1.9,
O=c1c2c(oc(O)c1C(c1cccc(NS(=O)(=O)c3ccccn3)c1)C1CC1)CCCCCC2 (centres undefined),< 1000,0.86,
O=C(O)c1ccc(S(=O)(=O)Nc2cccc(C(c3c(O)c4c(oc3=O)CCCCCC4)C3CC3)c2)cc1 (centres undefined),> 10000,,
O=c1c2c(oc(O)c1C(c1cccc(CS(=O)(=O)c3ccccn3)c1)C1CC1)CCCCCC2 (centres undefined),10000,1.9,
Cn1ccnc1S(=O)(=O)Cc1cccc(C(c2c(O)c3c(oc2=O)CCCCCC3)C2CC2)c1 (centres undefined),20400,3,
Cc1ccc(S(=O)(=O)Nc2cccc(C(c3c(O)c4c(oc3=O)CCCCCC4)C3CC3)c2)cc1 (centres undefined),3600,,
O=c1cc(C(CC2CC2)CC2CC2)oc(O)c1C(c1cccc(NS(=O)(=O)c2ccccn2)c1)C1CC1 (centres undefined),,0.66,> 1000 nM and < 3000 nM
Cc1ccc(S(=O)(=O)Cc2cccc(C(c3c(O)c4c(oc3=O)CCCCCC4)C3CC3)c2)cc1 (centres undefined),> 30000,4.1,
O=c1c2c(oc(O)c1C(c1cccc(CS(=O)(=O)c3ccccc3)c1)C1CC1)CCCCCC2 (centres undefined),> 30000,6,
N#Cc1ccc(S(=O)(=O)Nc2cccc(C(c3c(O)c4c(oc3=O)CCCCCC4)C3CC3)c2)cc1 (centres undefined),1500,,
O=C(O)c1ccc(S(=O)(=O)Cc2cccc(C(c3c(O)c4c(oc3=O)CCCCCC4)C3CC3)c2)cc1 (centres undefined),> 30000,7,
Cn1ccnc1S(=O)(=O)Nc1cccc(C(c2c(O)cc(C(CC3CC3)CC3CC3)oc2=O)C2CC2)c1 (centres undefined),,0.73,> 1000 nM and < 3000 nM
